These molecules were tested on MIA PaCa-2 cells (assay: MIA PaCa2 cell-based assay (1,536-well high-content imaging ALDEFLUOR assay)). Settings: Homo sapiens, 0.5 h, ALDEFLUOR BAAA substrate 500 nM, 30 minutes.
Parameters: species or system human
Protocol: Example 359. MIA PaCa2 Cell-Based Assay (In Vitro Assay)
1,536-Well High-Content Imaging ALDEFLUOR Assay
The ALDEFLUOR™ kit was purchased from […] Technologies (Vancouver, Canada; #01700). MIA PaCa-2 cells (5 μL; 1,000 cells/well) were dispensed into black, optical quality (cyclic olefin copolymer) clear bottom, medium binding TC treated 1,536-well plates (Aurora Microplates, Whitefish Mont.) using a Multidrop Combi dispenser (ThermoFisher) and incubated overnight (37° C., 5% CO2, 85% RH). Media (RPMI 1640 (Life Technologies, Carlsbad, Calif.), supplemented with 2 mM L-Glutamine (Life Technologies), 10% HyClone™ fetal bovine serum (FBS, GE Healthcare, Piscataway, N.J.) and 100 U/mL penicillin and 100 μg/mL streptomycin (Life Technologies)) was subsequently removed by centrifuging plates upside down using a plate adaptor to collect media. A solution of BAAA substrate ([…] Technologies) and Hoechst 33342 (ThermoFisher, final concentrations of 500 nM and 0.5 nM, respectively) in ALDEFLUOR™ buffer ([…] Technologies #01700) was dispensed onto cells using a Multidrop Combi followed by immediate transfer (23 nL) of compound or control solutions using a Wako Pin-tool (final percentage of DMSO in the cell plates was 0.5%). Unless otherwise noted, all compounds were assayed as 16-point dilutions spanning a final concentration range of 1.4 nM to 47.8 μM. The neutral and positive assay controls were DMSO and DEAB (4.6 μM), respectively. Cells were incubated for 30 minutes or the indicated amount of time at 37° C., 5% CO2, 85% RH to allow the conversion of BAAA into BAA. Supernatant was subsequently removed by centrifugation as described above, then ALDEFLUOR™ buffer (3 μl) was dispensed by Multidrop Combi before imaging on an IN Cell 2200 (GE Healthcare).
The above assay was modified for an online robotic screening system. After cell plating and overnight incubation, 4 μL of media were removed using a 64-tip metal aspirator head on a Wako aspirator station, leaving 1 μL remaining in the well, followed by a 4 μL dispense of BAAA and Hoechst 33342 in ALDEFLUOR™ buffer, for a final concentration of 500 nM and 0.5 nM, respectively Immediately following the dispense, 23 nL of compound or control solutions were transferred using a Wako Pin-tool. Cells were incubated for 30 minutes at 37° C., 5% CO2, 85% RH, followed by a 4 μL media removal using the Wako aspirator, and a subsequent 3 μL addition of ALDEFLUOR™ buffer. Plates were then immediately read on the IN Cell 2200 as described below.
Image Acquisition and Analysis
For images captured on the IN Cell 2200 widefield automated microscope, a 10×0.45 NA Plan Apo objective lens was used to capture the entire well of the 1,536-well plate using standard DAPI (390/18×, 432/48 m) and FITC (475/28×, 525/48 m) filter sets at 50 msec and 100 msec exposures, respectively. Images were subsequently analyzed using IN Cell Investigator v1.6.2 analysis software's canned Multi-Target Analysis algorithm (GE Healthcare). Hoechst stained nuclei were identified using top hat segmentation with a minimum area of 75 μm^2 and sensitivity of 93. BAA-retaining cells captured via FITC channel, were identified using multiscale top hat segmentation with a minimum area of 100 μm^2 and a sensitivity setting of 16. […] Data were plotted using GraphPad Prism software (GraphPad, San Diego, Calif.).
Cc1ccc2ncc(C(=O)N3CCN(C(=O)C4CC4)CC3)c(N3CCC4(CC3)OCCO4)c2c1 [Example 30, (4-(cyclopropanecarbonyl)piperazin-1-yl)(6-methyl-4-(1,4-dioxa-8-azaspiro[4.5]decan-8-yl)quinolin-3-yl)methanone] was tested, and the IC50 was 1 to 10 µM.
With CC1(C)CC=C(c2c(C(=O)N3CCN(S(C)(=O)=O)CC3)cnc3ccc(F)cc23)CC1 [Example 301, (4-(4,4-dimethylcyclohex-1-en-1-yl)-6-fluoroquinolin-3-yl)(4-(methylsulfonyl)piperazin-1-yl)methanone] the IC50 was under 0.5 µM.
Molecule COc1cc2ncc(C(=O)N3CCN(C(=O)C4CC4)CC3)c(N3CCC4(CC3)OCCO4)c2cc1OC [Example 48, (4-(cyclopropanecarbonyl)piperazin-1-yl)(6,7-dimethoxy-4-(1,4-dioxa-8-azaspiro[4.5]decan-8-yl)quinolin-3-yl)methanone] has an IC50 of 1 to 10 µM.
With CS(=O)(=O)N1CCN(C(=O)c2cnc3c(F)cc(F)cc3c2N2CCC(C#N)(c3ccccc3)CC2)CC1 [Cpd. 320, 1-(6,8-difluoro-3-(4-(methylsulfonyl)piperazine-1-carbonyl)quinolin-4-yl)-4-phenylpiperidine-4-carbonitrile] the IC50 was under 0.5 µM.
In the case of O=C(c1cnc2ccc(F)cc2c1N1CCC2(CC1)CC2)N1CCN(C(=O)C2CC2)CC1 [Example 59, (4-(cyclopropanecarbonyl)piperazin-1-yl)(6-fluoro-4-(6-azaspiro[2.5]octan-6-yl)quinolin-3-yl)methanone], the IC50 is reported as over 10 µM.
For CC(C)(C#N)c1ccc(-c2c(C(=O)N3CCN(S(C)(=O)=O)CC3)cnc3ccc(F)cc23)cc1 [Example 211, 2-(4-(6-fluoro-3-(4-(methylsulfonyl)piperazine-1-carbonyl)quinolin-4-yl)phenyl)-2-methylpropanenitrile], the IC50 was under 0.5 µM.
For CCC(=O)N1CCN(C(=O)c2cnc3ccc(F)cc3c2N2CCC(C)(C#N)CC2)CC1 [Example 91, 1-(6-fluoro-3-(4-propionylpiperazine-1-carbonyl)quinolin-4-yl)-4-methylpiperidine-4-carbonitrile], the IC50 was 1 to 10 µM.
CC1(C#N)CCN(c2c(C(=O)N3CCN(S(C)(=O)=O)CC3)cnc3[nH]ccc23)CC1 [Example 236, 4-methyl-1-(5-(4-(methylsulfonyl)piperazine-1-carbonyl)-1H-pyrrolo[2,3-b]pyridin-4-yl)piperidine-4-carbonitrile] gave an IC50 of 1 to 10 µM.
CS(=O)(=O)N1CCN(C(=O)c2cnc3ccc(F)cc3c2N2CCC(C#N)(Cc3ccccc3)CC2)CC1 [Example 245, 4-benzyl-1-(6-fluoro-3-(4-(methylsulfonyl)piperazine-1-carbonyl)quinolin-4-yl)piperidine-4-carbonitrile] showed an IC50 of 1 to 10 µM.
In the case of CC(C)(C)c1ccc(-c2c(C(=O)N3CCN(C(=O)C4CC4)CC3)cnc3ccc(F)cc23)cc1 [Example 84, (4-(4-(tert-butyl)phenyl)-6-fluoroquinolin-3-yl)(4-(cyclopropanecarbonyl)piperazin-1-yl)methanone], the IC50 is reported as under 0.5 µM.
With CCC1(C#N)CCN(c2c(C(=O)N3CCN(C(=O)C4CC4)CC3)cnc3ccc(F)cc23)CC1 [Example 202, 1-(3-(4-(cyclopropanecarbonyl)piperazine-1-carbonyl)-6-fluoroquinolin-4-yl)-4-ethylpiperidine-4-carbonitrile] the IC50 was under 0.5 µM.
Cc1cc(F)cc2c(N3CCC4(CC3)OCCO4)c(C(=O)N3CCN(C(=O)C4CC4)CC3)cnc12 [Example 73, (4-(cyclopropanecarbonyl)piperazin-1-yl)(6-fluoro-8-methyl-4-(1,4-dioxa-8-azaspiro[4.5]decan-8-yl)quinolin-3-yl)methanone] was tested, and the IC50 was 1 to 10 µM.
With CS(=O)(=O)N1CCN(C(=O)c2cnc3ccc(F)cc3c2-c2ccc(C3(C#N)CC3)cc2F)CC1 [Cpd. 315, 1-(3-fluoro-4-(6-fluoro-3-(4-(methylsulfonyl)piperazine-1-carbonyl)quinolin-4-yl)phenyl)cyclopropanecarbonitrile] the IC50 was under 0.5 µM.
With Cn1ncc2c(N3CCC(C)(C#N)CC3)c(C(=O)N3CCN(S(C)(=O)=O)CC3)cnc21 [Example 206, 4-methyl-1-(1-methyl-5-(4-(methylsulfonyl)piperazine-1-carbonyl)-1H-pyrazolo[3,4-b]pyridin-4-yl)piperidine-4-carbonitrile] the IC50 was 1 to 10 µM.
COc1ccc2ncc(C(=O)N3CCN(S(C)(=O)=O)CC3)c(N3CCC(C#N)(c4ccccc4)CC3)c2c1 [Cpd. 317, 1-(6-methoxy-3-(4-(methylsulfonyl)piperazine-1-carbonyl)quinolin-4-yl)-4-phenylpiperidine-4-carbonitrile] was tested, and the IC50 was under 0.5 µM.
CN(C)S(=O)(=O)N1CCN(C(=O)c2cnc3ccc(F)cc3c2-c2ccc(C3(C#N)CC3)cc2)CC1 [Example 260, 4-(4-(4-(1-cyanocyclopropyl)phenyl)-6-fluoroquinoline-3-carbonyl)-N,N-dimethylpiperazine-1-sulfonamide] was tested, and the IC50 was under 0.5 µM.
In the case of COc1ccc2ncc(CN3CCN(C(=O)C4CC4)CC3)c(N3CCC4(CC3)OCCO4)c2c1 [Example 57, Cyclopropyl(4-((6-methoxy-4-(1,4-dioxa-8-azaspiro[4.5]decan-8-yl)quinolin-3-yl)methyl)piperazin-1-yl)methanone], the IC50 is reported as over 10 µM.
N#CC1(c2ccc(-c3c(C(=O)N4CCN(C(=O)C5CC5)CC4)cnc4ccc(Cl)cc34)cc2)CC1 [Example 294, 1-(4-(6-chloro-3-(4-(cyclopropanecarbonyl)piperazine-1-carbonyl)quinolin-4-yl)phenyl)cyclopropanecarbonitrile] showed an IC50 of under 0.5 µM.
CC1(C#N)CCN(c2c(C(=O)N3CCN(S(C)(=O)=O)CC3)cnc3[nH]ncc23)CC1 [Example 235, 4-methyl-1-(5-(4-(methylsulfonyl)piperazine-1-carbonyl)-1H-pyrazolo[3,4-b]pyridin-4-yl)piperidine-4-carbonitrile] gave an IC50 of over 10 µM.
CS(=O)(=O)N1CCN(C(=O)c2cnc3ccc(F)cc3c2-c2ccc(C3(C#N)CCCC3)cc2)CC1 [Cpd. 309, 1-(4-(6-fluoro-3-(4-(methylsulfonyl)piperazine-1-carbonyl)quinolin-4-yl)phenyl)cyclopentanecarbonitrile] showed an IC50 of under 0.5 µM.
Molecule CS(=O)(=O)N1CCN(C(=O)c2cnc3c(F)cc(F)cc3c2-c2ccc(C3(C#N)CC3)cc2)CC1 [Cpd. 324, 1-(4-(6,8-difluoro-3-(4-(methylsulfonyl)piperazine-1-carbonyl)quinolin-4-yl)phenyl)cyclopropane-1-carbonitrile] has an IC50 of under 0.5 µM.
CC1(C#N)CCN(c2c(C(=O)N3CCN(S(C)(=O)=O)CC3)cnc3sccc23)CC1 [Example 217, 4-methyl-1-(5-(4-(methylsulfonyl)piperazine-1-carbonyl)thieno[2,3-b]pyridin-4-yl)piperidine-4-carbonitrile] showed an IC50 of 1 to 10 µM.
Molecule CC(=O)N1CCN(c2c(C(=O)N3CCN(C(=O)C4CC4)CC3)cnc3ccc(F)cc23)CC1 [Cpd. 304, 1-(4-(3-(4-(cyclopropanecarbonyl)piperazine-1-carbonyl)-6-fluoroquinolin-4-yl)piperazin-1-yl)ethanone] has an IC50 of over 10 µM.
Molecule O=C(c1cnc2ccc(F)cc2c1N1CC2(CCCCC2)C1)N1CCN(C(=O)C2CC2)CC1 [Example 80, (4-(cyclopropanecarbonyl)piperazin-1-yl)(6-fluoro-4-(2-azaspiro[3.5]nonan-2-yl)quinolin-3-yl)methanone] has an IC50 of over 10 µM.
For CC(C)(C#N)c1ccc(-c2c(C(=O)N3CCN(C(=O)C4CC4)CC3)cnc3ccc(F)cc23)cc1 [Example 264, 2-(4-(3-(4-(cyclopropanecarbonyl)piperazine-1-carbonyl)-6-fluoroquinolin-4-yl)phenyl)-2-methylpropanenitrile], the IC50 was under 0.5 µM.
For N#CC1(c2ccccc2)CCN(c2c(C(=O)N3CCN(C(=O)C4CC4)CC3)cnc3ccc(F)cc23)CC1 [Example 208, 1-(3-(4-(cyclopropanecarbonyl)piperazine-1-carbonyl)-6-fluoroquinolin-4-yl)-4-phenylpiperidine-4-carbonitrile], the IC50 was under 0.5 µM.

Reference: patent publication US11795177B2, “Substituted quinoline analogs as aldehyde dehydrogenase 1A1 (ALDH1A1) inhibitors” (THE UNITED STATES OF AMERICA, AS REPRESENTED BY THE …, priority 2017, dated 2023)
